In ChEMBL document CHEMBL5579841, “Structure-based development of novel substrate-type G9a inhibitors as epigenetic modulators for sickle cell disease treatment” (Bioorg Med Chem Lett, 2024):
Converted amounts (≈) assume the structure as drawn. The source made the active and inactive calls. The calls are words filed in the database; no cut-off is given here.

What was measured:
[1] = biological target: T1, Histone-lysine N-methyltransferase EHMT2 (Homo sapiens, UniProt Q96KQ7); assay: Binding affinity to G9a (unknown origin) assessed as dissociation constant by SPR analysis
T1 sequence (Q96KQ7 whole entry): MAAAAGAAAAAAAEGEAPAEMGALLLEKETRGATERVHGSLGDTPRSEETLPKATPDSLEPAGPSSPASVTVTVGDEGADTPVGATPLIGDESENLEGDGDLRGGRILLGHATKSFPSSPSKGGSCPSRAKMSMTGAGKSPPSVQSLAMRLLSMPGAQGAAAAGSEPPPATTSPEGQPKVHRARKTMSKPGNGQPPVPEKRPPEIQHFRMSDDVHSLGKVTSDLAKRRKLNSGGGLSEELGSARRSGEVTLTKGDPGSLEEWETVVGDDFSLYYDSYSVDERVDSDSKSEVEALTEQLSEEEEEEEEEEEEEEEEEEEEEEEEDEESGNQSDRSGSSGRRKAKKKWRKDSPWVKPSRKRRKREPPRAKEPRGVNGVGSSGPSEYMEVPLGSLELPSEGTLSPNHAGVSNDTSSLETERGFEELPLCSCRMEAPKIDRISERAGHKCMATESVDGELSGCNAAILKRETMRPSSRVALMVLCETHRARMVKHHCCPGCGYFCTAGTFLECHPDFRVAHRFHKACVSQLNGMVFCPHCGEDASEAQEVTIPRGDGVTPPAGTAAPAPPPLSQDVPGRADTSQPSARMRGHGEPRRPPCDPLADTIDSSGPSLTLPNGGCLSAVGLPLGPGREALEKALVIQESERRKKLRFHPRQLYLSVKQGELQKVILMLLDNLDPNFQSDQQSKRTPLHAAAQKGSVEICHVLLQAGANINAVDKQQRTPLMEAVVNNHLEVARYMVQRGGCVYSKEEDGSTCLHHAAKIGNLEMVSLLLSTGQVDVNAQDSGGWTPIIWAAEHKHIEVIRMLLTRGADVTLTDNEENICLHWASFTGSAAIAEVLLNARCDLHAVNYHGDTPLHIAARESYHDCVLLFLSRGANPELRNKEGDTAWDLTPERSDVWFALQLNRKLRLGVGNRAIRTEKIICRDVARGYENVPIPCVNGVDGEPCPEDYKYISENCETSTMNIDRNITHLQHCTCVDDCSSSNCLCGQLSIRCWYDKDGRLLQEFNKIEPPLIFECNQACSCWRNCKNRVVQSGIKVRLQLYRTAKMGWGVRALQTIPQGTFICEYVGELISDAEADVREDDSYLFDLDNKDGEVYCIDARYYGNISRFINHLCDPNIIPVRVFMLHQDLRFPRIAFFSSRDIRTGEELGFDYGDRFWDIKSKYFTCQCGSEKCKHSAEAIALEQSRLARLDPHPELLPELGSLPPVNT

[2] = biological target: T2, Histone-lysine N-methyltransferase EHMT2 (Homo sapiens) (UniProt Q96KQ7); assay: Binding affinity to G9a (unknown origin) assessed as binding constant K(on) by SPR analysis
T2 sequence (whole entry): T1 sequence (Q96KQ7 whole entry)

[3] = biological target: T2, Histone-lysine N-methyltransferase EHMT2 (Homo sapiens); assay: Binding affinity to G9a (unknown origin) assessed as binding constant K(off) by SPR analysis
[4] = Aqueous solubility of compound at pH 7.4; type: physicochemical
[5] = Permeability of compound by PAMPA; type: ADME; details: read-out: permeability
[6] = Metabolic stability in mouse liver microsomes assessed as compound remaining measured after 30 mins; type: ADME, Microsome; details: read-out: Stability
[7] = Metabolic stability in mouse liver microsomes assessed as compound remaining measured after 60 mins; type: ADME, Microsome; details: read-out: Stability
[8] = Metabolic stability in human liver microsomes assessed as compound remaining measured after 30 mins; type: ADME, Microsome; details: read-out: Stability
[9] = Metabolic stability in human liver microsomes assessed as compound remaining measured after 60 mins; type: ADME, Microsome; details: read-out: Stability
[10] = biological target: T1, Histone-lysine N-methyltransferase EHMT2; assay: Inhibition of G9a (unknown origin)
[11] = system: HUDEP-2; assay: Induction of gamma-globin mRNA expression in human HUDEP-2 cells assessed as expression shift from adult-type beta-globin to fetal-type gamma-globin upto 1 uM by […] analysis; type: functional, cell-based

SMILES	solubility [4] [µM]	Papp [5] [×10⁻⁶ cm/s]	IC50 [10] [µM]	also measured
Cc1c(C(=O)N[C@@H](CCC2CC2)C(=O)Nc2ccc(C#N)cc2)[nH]c2c1C(=O)CC(C)(C)C2				Kd [1]: 0.75 µM; K [2]: 16000 M⁻¹ s⁻¹; K [3]: 0.012 s⁻¹
CCCC[C@H](NC(=O)c1[nH]c2c(c1C)C(=O)CC(C)(C)C2)C(=O)Nc1ccccc1	7 (≈ 2.87 µg/mL)	35.9		remaining at 0.5 h [6]: 11%; remaining at 1 h [7]: 1.1%; remaining at 0.5 h [8]: 22%; remaining at 1 h [9]: 10%
CCCC[C@H](NC(=O)c1[nH]c2c(c1C)C(=O)CC(C)(C)C2)C(=O)Nc1ccc(OC2CCN(C)CC2)nc1	200 (≈ 105 µg/mL)	8.1	0.044	remaining at 0.5 h [6]: 72%; remaining at 1 h [7]: 53%; remaining at 0.5 h [8]: 80%; remaining at 1 h [9]: 62%; Kd [1]: 0.17 µM; K [2]: 79000 M⁻¹ s⁻¹; K [3]: 0.013 s⁻¹
CCCC[C@H](NC(=O)c1[nH]c2c(c1C)C(=O)CC(C)(C)C2)C(=O)NCc1ccc(CN(C)C)cc1	201 (≈ 96.6 µg/mL)	7.2	0.009	remaining at 0.5 h [6]: 78%; remaining at 1 h [7]: 65%; remaining at 0.5 h [8]: 52%; remaining at 1 h [9]: 30%
CCCC[C@H](NC(=O)c1[nH]c2c(c1C)C(=O)CC(C)(C)C2)C(=O)Nc1ccc(OC2CCN(C)CC2)cc1	200 (≈ 105 µg/mL)	9.3	0.024	remaining at 0.5 h [6]: 72%; remaining at 1 h [7]: 58%; remaining at 0.5 h [8]: 57%; remaining at 1 h [9]: 37%; Kd [1]: 0.12 µM; K [2]: 110000 M⁻¹ s⁻¹; K [3]: 0.013 s⁻¹; Activity [11]: Active
CCCCC(NC(=O)c1[nH]c2c(c1C)C(=O)CC(C)(C)C2)C(=O)Nc1ccccc1 (racemic)	20 (≈ 8.19 µg/mL)		1.3	
CCCCC(NC(=O)c1[nH]c2c(c1C)C(=O)CC(C)(C)C2)C(=O)Nc1cccnc1 (racemic)	> 200	29		
CCCCC(NC(=O)c1[nH]c2c(c1C)C(=O)CC(C)(C)C2)C(=O)Nc1ccc(OCCN(C)C)nc1 (racemic)	> 200	3.6	0.11	
CCCCC(NC(=O)c1[nH]c2c(c1C)C(=O)CC(C)(C)C2)C(=O)Nc1ccc(CCN2CCOCC2)cc1 (racemic)	14 (≈ 7.32 µg/mL)		1	
CCCCC(NC(=O)c1[nH]c2c(c1C)C(=O)CC(C)(C)C2)C(=O)Nc1ccc(CCN2CCCCC2)cc1 (racemic)	197 (≈ 103 µg/mL)	6.3	0.042	
CCCCC(NC(=O)c1[nH]c2c(c1C)C(=O)CC(C)(C)C2)C(=O)NCc1ccc(CN(C)C)cc1 (racemic)	> 200	9.5	0.012	
CCCCC(NC(=O)c1[nH]c2c(c1C)C(=O)CC(C)(C)C2)C(=O)Nc1ccc(OC2CCN(C)CC2)cc1 (racemic)	192 (≈ 100 µg/mL)	5.9	0.022	
CCCCC(NC(=O)c1[nH]c2c(c1C)C(=O)CC(C)(C)C2)C(=O)NCc1ccccc1 (racemic)	2.5 (≈ 1.06 µg/mL)		0.33	
CCCCC(NC(=O)c1[nH]c2c(c1C)C(=O)CC(C)(C)C2)C(=O)Nc1ccc(CCN2CCS(=O)(=O)CC2)cc1 (racemic)	37 (≈ 21.1 µg/mL)	2.12	2.8	
CCCCC(NC(=O)c1[nH]c2c(c1C)C(=O)CC(C)(C)C2)C(=O)Nc1ccc(CN2CCCC2)cc1 (racemic)	189 (≈ 93.1 µg/mL)	12.7	0.044	
CCCCC(NC(=O)c1[nH]c2c(c1C)C(=O)CC(C)(C)C2)C(=O)Nc1ccc(OCCN)nc1 (racemic)	> 200	0.4	0.074	
CCCCC(NC(=O)c1[nH]c2c(c1C)C(=O)CC(C)(C)C2)C(=O)Nc1ccc(CN2CCC(F)(F)CC2)cc1 (racemic)	5.7 (≈ 3.09 µg/mL)		0.93	
CCCCC(NC(=O)c1[nH]c2c(c1C)C(=O)CC(C)(C)C2)C(=O)Nc1ccc(OC2CCN(C)CC2)nc1 (racemic)	> 200	4.9	0.065	
CCCCC(NC(=O)c1[nH]c2c(c1C)C(=O)CC(C)(C)C2)C(=O)Nc1ccc(OCCNC)nc1 (racemic)	> 200	0.07	0.059	
CCCCC(NC(=O)c1[nH]c2c(c1C)C(=O)CC(C)(C)C2)C(=O)Nc1ccc(CCN2CCC(F)(F)CC2)cc1 (racemic)	2.3 (≈ 1.28 µg/mL)		1.6	
CCCCC(NC(=O)c1[nH]c2c(c1C)C(=O)CC(C)(C)C2)C(=O)Nc1ccc(CN(C)C)cc1 (racemic)			0.042	
